Results: patent US20020137929A1, “1 - (3-heterocyclylphenyl) isothiourea, -isourea, -guanidine and -amidine herbicidal agents” (Intellectual Property Department, BASF Aktiengesellschaft, priority 1998, published 2002)

What was measured:
[1] = test system: CHEAL (Lambsquarters, Common); assay: Postemergence herbicidal evaluation; format: in vivo, Chenopodium album; conditions: postemergence
In short: (§1)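 Each compound, dispersed in an acetone/water mix (50/50) carrying 0.5% TWEEN 20, is nozzle-sprayed at 40 psi on approximately two-week-old seedlings at about 0.0156–0.500 kg/ha. Plants are assessed 4–5 weeks afterward on a 0–9 scale relative to control; duplicate tests are averaged.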

[2] = test system: IPOSS (Morningglory Spp.); assay: Preemergence herbicidal evaluation; format: in vivo, Ipomoea Spp.; conditions: rated 4-5 weeks after treatment
Description: (§2) Results of herbicide evaluation are expressed on a rating scale (0-9). The scale is based upon a visual observation of plant stand, vigor, malformation, size, chlorosis and overall plant appearance as compared with a control.
The preemergence herbicidal activity of the test compounds of the present invention is exemplified by the following tests in which the seeds of a variety of monocotyledonous and dicotyledonous plants are separately mixed with potting soil and planted on top of approximately one inch of soil in separate pint cups. After planting, the cups are sprayed with the selected aqueous acetone solution containing test compound in sufficient quantity to provide the equivalent of about 0.0156 to 0.500 kg per hectare of test compound per cup. The treated cups are then placed on greenhouse benches, watered and cared for in accordance with conventional greenhouse procedures. From four to five weeks after treatment, the tests are terminated and each cup is examined and rated according to the rating system provided in Example 37.
The compounds evaluated are reported by compound number given in Example 37.

CASOB (Sicklepod) = assay: Postemergence herbicidal evaluation; format: in vivo, Cassia obtusifolia; conditions: postemergence
In short: as §1

MOOVA (Monochoria) = assay: Postemergence weed control under flooded paddy conditions; format: in vivo, Monochoria vaginalis; conditions: postemergence weeds, 3-4 weeks after treatment
In short: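 With weeds 3 to 5 cm tall and rice at the 1.5 to 2.5 leaf stage, containers were flooded and water held 1.5 to 3 cm above soil. Compounds in 50/50 v/v aqueous/acetone went into the flood water at about 0.0313 to 0.500 kg/ha a.i. Effects were visually rated 0–9 against controls after three to four weeks in the greenhouse.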

[3] = test system: IPOSS (Morningglory Spp.); assay: Postemergence herbicidal evaluation; format: in vivo, Ipomoea Spp.
Description: In the tests, seedling plants are grown in jiffy flats for about two weeks. The test compounds are dispersed in 50/50 acetone/water mixtures containing 0.5% TWEEN®20, a polyoxyethylene sorbitan monolaurate surfactant of Atlas Chemical Industries, in sufficient quantities to provide the equivalent of about 0.0156 kg to 0.500 kg per hectare of active compound when applied to the plants through a spray nozzle operating at 40 psi for a predetermined time. After spraying, the plants are placed on greenhouse benches and are cared for in accordance with conventional greenhouse procedures. From four to five weeks after treatment, the seedling plants are examined and rated according to the rating system set forth below. Where more than one test is involved for a given compound, the data are averaged.
Plant species employed in these evaluations are reported by header abbreviation, common name and scientific name.
as §2

[4] = test system: CHEAL (Lambsquarters, Common); assay: Preemergence herbicidal evaluation; format: in vivo, Chenopodium album; conditions: rated 4-5 weeks after treatment
In short: (§3)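 Greenhouse preemergence test: seed-soil mix sown on ~1 inch soil; aqueous acetone spray at equivalent of ~0.0156–0.500 kg/ha; greenhouse-held and watered; scored 0–9 visually at 4–5 weeks.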

ORYSAT (Rice, Tebonnet) [5] = assay: Preemergence herbicidal evaluation; format: in vivo, Oryza sativa, (L.) Tebonnet; conditions: rated 4-5 weeks after treatment
In short: as §3

[6] = test system: TRZAWR (Wheat, Winter, cv Riband); assay: Postemergence herbicidal evaluation; format: in vivo, Triticum aestivum; conditions: postemergence
In short: as §1

ORYSAT (Rice, Tebonnet) [7] = assay: Rice tolerance to post-transplant applications, flooded paddy conditions (Table III); format: in vivo, Oryza sativa, (L.) Tebonnet; conditions: in vivo
In short: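 Two ten-day-old Tebonnet seedlings transplanted into flooded silt loam (water 1.5 to 3 cm above soil); three days later the water surface was treated with compound in aqueous/acetone 50/50 at about 0.0313 to 0.500 kg/ha. Visual 0-9 injury rating versus control after three to four weeks in greenhouse.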

ORYSAT (Rice, Tebonnet) [8] = assay: Rice tolerance to post-transplant applications, flooded paddy conditions (Table IV); format: in vivo, Oryza sativa, (L.) Tebonnet; conditions: in vivo
In short: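 Containers holding 3–5 cm weeds and rice at 1.5–2.5 leaves are flooded to 1.5–3 cm above soil. Compound in 50/50 v/v aqueous/acetone is then added directly to the water, about 0.0313–0.500 kg/ha. Plants are kept in the greenhouse and rated 0–9 visually at 3–4 weeks.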

`CN1C(=O)CSC1=Nc1cc(N2C(=O)C3=C(CCCC3)C2=O)c(F)cc1Cl` [Compound 1, N-{4-chloro-2-fluoro-5-[(3-methyl-4-oxo-2-thiazolidinylidene)amino]phenyl}-1-cyclohexene-1,2-dicarboximide] was tested, and the CHEAL herbicidal rating ([1]; rate 0.0157 kg/ha) was 6.0, the CHEAL herbicidal rating ([1]; rate 0.0313 kg/ha) was 7.0 and the CHEAL herbicidal rating ([1]; rate 0.0625 kg/ha) was 7.0. The CHEAL herbicidal rating ([1]; rate 0.1250 kg/ha) was 9.0, the CHEAL herbicidal rating ([1]; rate 0.2500 kg/ha) was 9.0 and the CHEAL herbicidal rating ([1]; rate 0.5000 kg/ha) was 9.0. For the same molecule, the “IPOSS preemergence herbicidal rating” value ([2]; rate 0.0313 kg/ha) was 1.0, the “IPOSS preemergence herbicidal rating” value ([2]; rate 0.0625 kg/ha) was 6.0 and the “IPOSS preemergence herbicidal rating” value ([2]; rate 0.1250 kg/ha) was 7.0. For the same molecule, the “IPOSS preemergence herbicidal rating” value ([2]; rate 0.2500 kg/ha) was 6.0, the “IPOSS preemergence herbicidal rating” value ([2]; rate 0.5000 kg/ha) was 8.0 and the CASOB herbicidal rating (CASOB (Sicklepod); rate 0.0157 kg/ha) was 0.0. The CASOB herbicidal rating (CASOB (Sicklepod); rate 0.0313 kg/ha) was 2.0, the CASOB herbicidal rating (CASOB (Sicklepod); rate 0.0625 kg/ha) was 4.0 and the CASOB herbicidal rating (CASOB (Sicklepod); rate 0.1250 kg/ha) was 4.0. For the same molecule, the CASOB herbicidal rating (CASOB (Sicklepod); rate 0.2500 kg/ha) was 6.0, the CASOB herbicidal rating (CASOB (Sicklepod); rate 0.5000 kg/ha) was 7.0 and the “Herbicidal rating MOOVA” value (MOOVA (Monochoria); rate 0.0313 kg/ha) was 4.0. For the same molecule, the “Herbicidal rating MOOVA” value (MOOVA (Monochoria); rate 0.0625 kg/ha) was 4.5, the “Herbicidal rating MOOVA” value (MOOVA (Monochoria); rate 0.1250 kg/ha) was 4.5 and the “Herbicidal rating MOOVA” value (MOOVA (Monochoria); rate 0.2500 kg/ha) was 5.0. The “Herbicidal rating MOOVA” value (MOOVA (Monochoria); rate 0.5000 kg/ha) was 5.5, the IPOSS herbicidal rating ([3]; rate 0.0157 kg/ha) was 6.0 and the IPOSS herbicidal rating ([3]; rate 0.0313 kg/ha) was 9.0. For the same molecule, the IPOSS herbicidal rating ([3]; rate 0.0625 kg/ha) was 9.0, the IPOSS herbicidal rating ([3]; rate 0.1250 kg/ha) was 9.0 and the IPOSS herbicidal rating ([3]; rate 0.2500 kg/ha) was 9.0. The IPOSS herbicidal rating ([3]; rate 0.5000 kg/ha) was 9.0, the “CHEAL preemergence herbicidal rating” value ([4]; rate 0.0313 kg/ha) was 9.0 and the “CHEAL preemergence herbicidal rating” value ([4]; rate 0.0625 kg/ha) was 9.0. For the same molecule, the “CHEAL preemergence herbicidal rating” value ([4]; rate 0.1250 kg/ha) was 9.0, the “CHEAL preemergence herbicidal rating” value ([4]; rate 0.2500 kg/ha) was 9.0 and the “CHEAL preemergence herbicidal rating” value ([4]; rate 0.5000 kg/ha) was 9.0. For the same molecule, the “ORYSAT preemergence herbicidal rating” value (ORYSAT (Rice, Tebonnet) [5]; rate 0.0313 kg/ha) was 0.0, the “ORYSAT preemergence herbicidal rating” value (ORYSAT (Rice, Tebonnet) [5]; rate 0.0625 kg/ha) was 0.0 and the “ORYSAT preemergence herbicidal rating” value (ORYSAT (Rice, Tebonnet) [5]; rate 0.1250 kg/ha) was 2.0. For the same molecule, the “ORYSAT preemergence herbicidal rating” value (ORYSAT (Rice, Tebonnet) [5]; rate 0.2500 kg/ha) was 3.0, the “ORYSAT preemergence herbicidal rating” value (ORYSAT (Rice, Tebonnet) [5]; rate 0.5000 kg/ha) was 6.0 and the TRZAWR herbicidal rating ([6]; rate 0.0157 kg/ha) was 2.5. The TRZAWR herbicidal rating ([6]; rate 0.0313 kg/ha) was 3.5, the TRZAWR herbicidal rating ([6]; rate 0.0625 kg/ha) was 4.0 and the TRZAWR herbicidal rating ([6]; rate 0.1250 kg/ha) was 5.0. The TRZAWR herbicidal rating ([6]; rate 0.2500 kg/ha) was 5.5 and the TRZAWR herbicidal rating ([6]; rate 0.5000 kg/ha) was 6.0.

`CCOC(=O)CN1C(=O)C(=C2CCCC2)SC1=Nc1cc(-n2c(=O)cc(C(F)(F)F)n(C)c2=O)c(F)cc1Cl` [Compound 18, Ethyl 2-{{2-chloro-5-[3,6-dihydro-3-methyl-2,6-dioxo-4-(trifluoromethyl)-1(2H)-pyrimidinyl]-4-fluorophenyl}imino}-5-cyclopentylidene-4-oxo-3-thiazolidineacetate] showed a CHEAL herbicidal rating ([1]; rate 0.0158 kg/ha) of 6.0, a CHEAL herbicidal rating ([1]; rate 0.0315 kg/ha) of 9.0 and a CHEAL herbicidal rating ([1]; rate 0.0630 kg/ha) of 9.0. For the same molecule, the “Herbicidal rating ORYSAT (rice tolerance)” value (ORYSAT (Rice, Tebonnet) [7]) was 3.0, the CASOB herbicidal rating (CASOB (Sicklepod); rate 0.0158 kg/ha) was 0.0 and the CASOB herbicidal rating (CASOB (Sicklepod); rate 0.0315 kg/ha) was 1.0. For the same molecule, the CASOB herbicidal rating (CASOB (Sicklepod); rate 0.0630 kg/ha) was 1.0, the “Herbicidal rating ORYSAT (rice tolerance)” value (ORYSAT (Rice, Tebonnet) [8]) was 3.0 and the “Herbicidal rating MOOVA” value (MOOVA (Monochoria); rate 0.1160 kg/ha) was 9.0. The “Herbicidal rating MOOVA” value (MOOVA (Monochoria); rate 0.2310 kg/ha) was 9.0, the “Herbicidal rating MOOVA” value (MOOVA (Monochoria); rate 0.4630 kg/ha) was 9.0 and the “CHEAL preemergence herbicidal rating” value ([4]; rate 0.1250 kg/ha) was 8.0. For the same molecule, the “CHEAL preemergence herbicidal rating” value ([4]; rate 0.2500 kg/ha) was 9.0, the “ORYSAT preemergence herbicidal rating” value (ORYSAT (Rice, Tebonnet) [5]; rate 0.1250 kg/ha) was 0.0 and the “ORYSAT preemergence herbicidal rating” value (ORYSAT (Rice, Tebonnet) [5]; rate 0.2500 kg/ha) was 0.0. The TRZAWR herbicidal rating ([6]; rate 0.0158 kg/ha) was 2.5, the TRZAWR herbicidal rating ([6]; rate 0.0315 kg/ha) was 3.0 and the TRZAWR herbicidal rating ([6]; rate 0.0630 kg/ha) was 3.0.
